Measurements published in patent US8741836B2, “Polypeptides” (Novo Nordisk A/S, priority 2011, dated 2014).
Starred links: 1 amine or outer side, 2 acyl side, 3 side chain; linkers in the order of their positions; H or OH if unused. Positions of bridges follow the written chain, without caps; N, C: chain ends. Residues, ends and D or L forms follow the SMILES beside them. *: point of attachment. C20 diacid = O=C(O)CCCCCCCCCCCCCCCCCCC(=O)*; γGlu = O=C(O)[C@H](CCC(=O)[*:2])N[*:1]

Assay: Assay (III) ThT fibrillation assay for physical stability
Type: physicochemical
Conditions: for ThT pH 4.0 lag time: pH 4.0, ThT fibrillation assay
Outline: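 Freshly prepared, pH-adjusted formulations with 1 μM ThT incubated at 37 °C under 960 rpm orbital shaking (1 mm), fluorescence (ex 444, em 485 nm) read every 20 min. […] Peptide content before and after measured by reverse-phase HPLC against pramlintide standard.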

| SMILES | ThT pH 4.0 lag time (physical stability in fibrillogenesis assay) | ThT pH 4.0 lag time |
| --- | --- | --- |
| CC[C@H](C)[C@H](NC(=O)[C@@H]1CCCN1C(=O)CNC(=O)[C@H](Cc1ccccc1)NC(=O)[C@H](CC(N)=O)NC(=O)[C@H](CC(N)=O)NC(=O)[C@H](CO)NC(=O)[C@H](CO)NC(=O)[C@H](Cc1c[nH]cn1)NC(=O)[C@H](Cc1c[nH]cn1)NC(=O)[C@H](CC(C)C)NC(=O)[C@H](Cc1ccccc1)NC(=O)[C@H](CCC(=O)O)NC(=O)[C@H](C)NC(=O)[C@H](CC(C)C)NC(=O)[C@H](CCCNC(=N)N)NC(=O)[C@H](CCC(N)=O)NC(=O)[C@@H](NC(=O)[C@H](C)NC(=O)[C@@H]1CSSC[C@H](NC(=O)[C@H](CCCCN)NC(=O)CC[C@H](NC(=O)CCCCCCCCCCCCCCCCCCC(=O)O)C(=O)O)C(=O)N[C@@H](CC(N)=O)C(=O)N[C@@H]([C@@H](C)O)C(=O)N[C@@H](C)C(=O)N[C@@H]([C@@H](C)O)C(=O)N1)[C@@H](C)O)C(=O)N[C@@H](CC(C)C)C(=O)N1CCC[C@H]1C(=O)N1CCC[C@H]1C(=O)N[C@H](C(=O)N[C@@H](CC(N)=O)C(=O)N[C@H](C(=O)NCC(=O)N[C@@H](CO)C(=O)N[C@@H](CCC(N)=O)C(=O)N[C@H](C(=O)N1CCC[C@H]1C(N)=O)[C@@H](C)O)C(C)C)[C@@H](C)O [Example 135, N-alpha-[(S)-4-Carboxy-4-(19-carboxynonadecanoylamino)butyryl]-[Glu14,His17,Gln35,Pro37]-pramlintide] ({C20 diacid-γGlu}-KCNTATCATQRLAEFLHHSSNNFGPILPPTNVGSQTP-NH2; disulfide 2-7) | >45 h | >45 h |
| CC[C@H](C)[C@H](NC(=O)[C@@H]1CCCN1C(=O)CNC(=O)[C@H](Cc1ccccc1)NC(=O)[C@H](CC(N)=O)NC(=O)[C@H](CCC(N)=O)NC(=O)[C@H](CO)NC(=O)[C@H](CO)NC(=O)[C@H](Cc1c[nH]cn1)NC(=O)[C@H](Cc1c[nH]cn1)NC(=O)[C@H](CC(C)C)NC(=O)[C@H](Cc1ccccc1)NC(=O)[C@H](CCC(=O)O)NC(=O)[C@H](C)NC(=O)[C@H](CC(C)C)NC(=O)[C@H](CCCNC(=N)N)NC(=O)[C@H](CCC(N)=O)NC(=O)[C@@H](NC(=O)[C@H](C)NC(=O)[C@@H]1CSSC[C@H](NC(=O)[C@H](CCCCN)NC(=O)CC[C@H](NC(=O)CCCCCCCCCCCCCCCCCCC(=O)O)C(=O)O)C(=O)N[C@@H](CC(N)=O)C(=O)N[C@@H]([C@@H](C)O)C(=O)N[C@@H](C)C(=O)N[C@@H]([C@@H](C)O)C(=O)N1)[C@@H](C)O)C(=O)N[C@@H](CC(C)C)C(=O)N1CCC[C@H]1C(=O)N1CCC[C@H]1C(=O)N[C@H](C(=O)N[C@@H](CC(N)=O)C(=O)N[C@H](C(=O)NCC(=O)N[C@@H](CO)C(=O)N[C@@H](CC(N)=O)C(=O)N[C@H](C(=O)N1CCC[C@H]1C(N)=O)[C@@H](C)O)C(C)C)[C@@H](C)O [Example 130, N-alpha-[(S)-4-Carboxy-4-(19-carboxynonadecanoylamino)butyryl]-[Glu14,His17,Gln21,Pro37]-pramlintide] ({C20 diacid-γGlu}-KCNTATCATQRLAEFLHHSSQNFGPILPPTNVGSNTP-NH2; disulfide 2-7) | >45 h | >45 h |
| CC[C@H](C)[C@H](NC(=O)[C@@H]1CCCN1C(=O)CNC(=O)[C@H](Cc1ccccc1)NC(=O)[C@H](CC(N)=O)NC(=O)[C@H](CC(N)=O)NC(=O)[C@H](CO)NC(=O)[C@H](CO)NC(=O)[C@H](Cc1c[nH]cn1)NC(=O)[C@H](CCCNC(=N)N)NC(=O)[C@H](CC(C)C)NC(=O)[C@H](Cc1ccccc1)NC(=O)[C@H](CCC(=O)O)NC(=O)[C@H](C)NC(=O)[C@H](CC(C)C)NC(=O)[C@H](CCCNC(=N)N)NC(=O)[C@H](CCC(N)=O)NC(=O)[C@@H](NC(=O)[C@H](C)NC(=O)[C@@H]1CSSC[C@H](NC(=O)[C@H](Cc2c[nH]cn2)NC(=O)CC[C@H](NC(=O)CCCCCCCCCCCCCCCCCCC(=O)O)C(=O)O)C(=O)N[C@@H](CC(N)=O)C(=O)N[C@@H]([C@@H](C)O)C(=O)N[C@@H](C)C(=O)N[C@@H]([C@@H](C)O)C(=O)N1)[C@@H](C)O)C(=O)N[C@@H](CC(C)C)C(=O)N1CCC[C@H]1C(=O)N1CCC[C@H]1C(=O)N[C@H](C(=O)N[C@@H](CC(N)=O)C(=O)N[C@H](C(=O)NCC(=O)N[C@@H](CO)C(=O)N[C@@H](CC(N)=O)C(=O)N[C@H](C(=O)N1CCC[C@H]1C(N)=O)[C@@H](C)O)C(C)C)[C@@H](C)O [Example 90, N-alpha-[(S)-4-Carboxy-4-(19-carboxynonadecanoylamino)butyryl]-[His1,Glu14,Arg17,Pro37]-pramlintide] ({C20 diacid-γGlu}-HCNTATCATQRLAEFLRHSSNNFGPILPPTNVGSNTP-NH2; disulfide 2-7) | >45 h | >45 h |
| CC[C@H](C)[C@H](NC(=O)[C@@H]1CCCN1C(=O)CNC(=O)[C@H](Cc1ccccc1)NC(=O)[C@H](CC(N)=O)NC(=O)[C@H](CC(N)=O)NC(=O)[C@H](CO)NC(=O)[C@H](CO)NC(=O)[C@H](Cc1c[nH]cn1)NC(=O)[C@H](Cc1c[nH]cn1)NC(=O)[C@H](CC(C)C)NC(=O)[C@H](Cc1ccccc1)NC(=O)[C@H](CCC(=O)O)NC(=O)[C@H](C)NC(=O)[C@H](CC(C)C)NC(=O)[C@H](CCCNC(=N)N)NC(=O)[C@H](CCC(N)=O)NC(=O)[C@@H](NC(=O)[C@H](C)NC(=O)[C@@H]1CSSC[C@H](NC(=O)CNC(=O)CC[C@H](NC(=O)CCCCCCCCCCCCCCCCCCC(=O)O)C(=O)O)C(=O)N[C@@H](CC(N)=O)C(=O)N[C@@H]([C@@H](C)O)C(=O)N[C@@H](C)C(=O)N[C@@H]([C@@H](C)O)C(=O)N1)[C@@H](C)O)C(=O)N[C@@H](CC(C)C)C(=O)N1CCC[C@H]1C(=O)N1CCC[C@H]1C(=O)N[C@H](C(=O)N[C@@H](CC(N)=O)C(=O)N[C@H](C(=O)NCC(=O)N[C@@H](CO)C(=O)N[C@@H](Cc1c[nH]cn1)C(=O)N[C@H](C(=O)N[C@@H](Cc1ccc(O)cc1)C(N)=O)[C@@H](C)O)C(C)C)[C@@H](C)O [Example 105, N-alpha-[(S)-4-Carboxy-4-(19-carboxynonadecanoylamino)butyryl]-[Gly1,Glu14,His17,His35]-pramlintide] ({C20 diacid-γGlu}-GCNTATCATQRLAEFLHHSSNNFGPILPPTNVGSHTY-NH2; disulfide 2-7) |  | 26 h |
